Measured values as given in paper PMC7073229, “Novel Quinoline Compounds Active in Cancer Cells through Coupled DNA Methyltransferase Inhibition and Degradation” (Cancers, 2020).

Key:
Assay type in all cases: biochemical
[1] = molecular target: T1, human DNMT1 (hDNMT1) (Homo sapiens, UniProt P26358); assay: DNMT1 assay ([methyl-3H]SAM, Flashplate); settings: mean of at least two independent experiments; read-out: Enzyme Inhibition (EC50 ± SD) hDNMT1
T1 construct: His; made in house
Method: His-DNMT1 (182 kDa, human) was cloned, expressed, and purified as described by Lee et al.. The DNMT1 assay was performed according to Gros et al.. […] The reaction was incubated 2 h at 37 °C, then 8 µL of the solution are transferred into a streptavidin 96-well scintillant coated Flashplate containing 190 µL of 20 mM SAH in 50 mM Tris–HCl (pH 7.4). The Flashplate is agitated for 1 h at room temperature and washed. The plate is read with TopCount (PerkinElmer). In this assay, the negative and positive controls were defined as wells without enzyme and wells with only DMSO, respectively.

[2] = molecular target: Akt1/PKBalpha (h) (Homo sapiens, UniProt P31749); assay: Kinase inhibitory assay (panel); settings: read-out: % inhibition at 10 µM
Method: (§1) Experimental procedure of kinase inhibitory assays
(§2) The test compound, reference compound or water (control) were mixed with the enzyme (for the exact amount see table below) in the appropriate buffer. Thereafter, the reaction was initiated by adding the required amount of the appropriate substrate and of ATP, and the mixture is incubated at room temperature (variable reaction time, see table below). For control basal measurements, the enzyme was omitted from the reaction mixture. Following incubation, the reaction was stopped by adding 13 mM
(§3) EDTA. After 5 min, the proper antibody labelled with europium chelate was added. After 60 more min, the fluorescence transfer was measured at λex=337 nm, λem=620 nm and λem=665 nm using a microplate reader (Envision, Perkin Elmer). The enzyme activity was determined by d ividing the signal measured at 665 nm by that measured at 620 nm (ratio). The results are expressed as a percent inhibition of the control enzyme activity. The standard inhibitory reference compound is staurosporine when not differently indicated (see tabl e below), which has been tested in each experiment at several concentrations to obtain an inhibition curve from which its IC 50 value is calculated.
(§4) • Assay volume and format: 10 µL in 384-well plate
(§5) • Compound addition: [100x] solution in solvent then [5x] solution in water • Maximum tolerable DMSO concentration: 1%

[3] = molecular target: Lck kinase (h) (Homo sapiens, UniProt P06239); assay: Kinase inhibitory assay (panel); settings: read-out: % inhibition at 10 µM
Method: as §1, §2, §3, §4, §5

[4] = molecular target: p38alpha kinase (h) (Homo sapiens, UniProt Q16539); assay: Kinase inhibitory assay (panel); settings: read-out: % inhibition at 10 µM
Method: as §1, §2, §3, §4, §5

[5] = molecular target: MNK2 (h) (Homo sapiens, UniProt Q9HBH9); assay: Kinase inhibitory assay (panel); settings: read-out: % inhibition at 10 µM
Method: as §1, §2, §3, §4, §5

[6] = molecular target: JAK3 (h) (Homo sapiens, UniProt P52333); assay: Kinase inhibitory assay (panel); settings: read-out: % inhibition at 10 µM
Method: as §1, §2, §3, §4, §5

[7] = molecular target: JNK1 (h) (Homo sapiens, UniProt P45983); assay: Kinase inhibitory assay (panel); settings: read-out: % inhibition at 10 µM
Method: as §1, §2, §3, §4, §5

[8] = molecular target: GSK3beta (h) (Homo sapiens, UniProt P49841); assay: Kinase inhibitory assay (panel); settings: read-out: % inhibition at 10 µM
Method: as §1, §2, §3, §4, §5

[9] = molecular target: EGFR kinase (h) (Homo sapiens, UniProt P00533); assay: Kinase inhibitory assay (panel); settings: read-out: % inhibition at 10 µM
Method: as §1, §2, §3, §4, §5

[10] = molecular target: c-Met kinase (h) (Homo sapiens, UniProt P08581); assay: Kinase inhibitory assay (panel); settings: read-out: % inhibition at 10 µM
Method: as §1, §2, §3, §4, §5

[11] = molecular target: CDC2/CDK1 (h) (cycB) (Homo sapiens, UniProt P06493); assay: Kinase inhibitory assay (panel); settings: read-out: % inhibition at 10 µM
Method: as §1, §2, §3, §4, §5

[12] = molecular target: PKA (h) (Homo sapiens, UniProt P17612); assay: Kinase inhibitory assay (panel); settings: read-out: % inhibition at 10 µM
Method: as §1, §2, §3, §4, §5

[13] = molecular target: SGK1 (h) (Homo sapiens, UniProt O00141); assay: Kinase inhibitory assay (panel); settings: read-out: % inhibition at 10 µM
Method: as §1, §2, §3, §4, §5

[14] = molecular target: PAK2 (h) (Homo sapiens, UniProt Q13177); assay: Kinase inhibitory assay (panel); settings: read-out: % inhibition at 10 µM
Method: as §1, §2, §3, §4, §5

[15] = molecular target: Abl kinase (h) (Homo sapiens, UniProt P00519); assay: Kinase inhibitory assay (panel); settings: read-out: % inhibition at 10 µM
Method: as §1, §2, §3, §4, §5

[16] = molecular target: ERK2 (h) (P42mapk) (Homo sapiens, UniProt P28482); assay: Kinase inhibitory assay (panel); settings: read-out: % inhibition at 10 µM
Method: as §1, §2, §3, §4, §5

[17] = molecular target: CaMK2alpha (h) (Homo sapiens, UniProt Q9UQM7); assay: Kinase inhibitory assay (panel); settings: read-out: % inhibition at 10 µM
Method: as §1, §2, §3, §4, §5

[18] = molecular target: AurA/Aur2 kinase (h) (Homo sapiens, UniProt O14965); assay: Kinase inhibitory assay (panel); settings: read-out: % inhibition at 10 µM
Method: as §1, §2, §3, §4, §5

[19] = molecular target: FGFR2 kinase (h) (Homo sapiens, UniProt P21802); assay: Kinase inhibitory assay (panel); settings: read-out: % inhibition at 10 µM
Method: as §1, §2, §3, §4, §5

[20] = molecular target: CHK1 (h) (Homo sapiens, UniProt O14757); assay: Kinase inhibitory assay (panel); settings: read-out: % inhibition at 10 µM
Method: as §1, §2, §3, §4, §5

[21] = molecular target: PAK4 (h) (Homo sapiens, UniProt O96013); assay: Kinase inhibitory assay (panel); settings: read-out: % inhibition at 10 µM
Method: as §1, §2, §3, §4, §5

[22] = molecular target: Pim2 kinase (h) (Homo sapiens, UniProt Q9P1W9); assay: Kinase inhibitory assay (panel); settings: read-out: % inhibition at 10 µM
Method: as §1, §2, §3, §4, §5

[23] = molecular target: CHK2 (h) (Homo sapiens, UniProt O96017); assay: Kinase inhibitory assay (panel); settings: read-out: % inhibition at 10 µM
Method: as §1, §2, §3, §4, §5

[24] = molecular target: PDK1 (h) (Homo sapiens, UniProt O15530); assay: Kinase inhibitory assay (panel); settings: read-out: % inhibition at 10 µM
Method: as §1, §2, §3, §4, §5

[25] = molecular target: SIK (h) (Homo sapiens, UniProt P57059); assay: Kinase inhibitory assay (panel); settings: read-out: % inhibition at 10 µM
Method: as §1, §2, §3, §4, §5

[26] = molecular target: EphA3 kinase (h) (Homo sapiens, UniProt P29320); assay: Kinase inhibitory assay (panel); settings: read-out: % inhibition at 10 µM
Method: as §1, §2, §3, §4, §5

[27] = molecular target: EphA2 kinase (h) (Homo sapiens, UniProt P29317); assay: Kinase inhibitory assay (panel); settings: read-out: % inhibition at 10 µM
Method: as §1, §2, §3, §4, §5

[28] = molecular target: ROCK1 (h) (Homo sapiens, UniProt Q13464); assay: Kinase inhibitory assay (panel); settings: read-out: % inhibition at 10 µM
Method: as §1, §2, §3, §4, §5

[29] = molecular target: NEK2 (h) (Homo sapiens, UniProt P51955); assay: Kinase inhibitory assay (panel); settings: read-out: % inhibition at 10 µM
Method: as §1, §2, §3, §4, §5

T1 sequence (P26358 whole entry): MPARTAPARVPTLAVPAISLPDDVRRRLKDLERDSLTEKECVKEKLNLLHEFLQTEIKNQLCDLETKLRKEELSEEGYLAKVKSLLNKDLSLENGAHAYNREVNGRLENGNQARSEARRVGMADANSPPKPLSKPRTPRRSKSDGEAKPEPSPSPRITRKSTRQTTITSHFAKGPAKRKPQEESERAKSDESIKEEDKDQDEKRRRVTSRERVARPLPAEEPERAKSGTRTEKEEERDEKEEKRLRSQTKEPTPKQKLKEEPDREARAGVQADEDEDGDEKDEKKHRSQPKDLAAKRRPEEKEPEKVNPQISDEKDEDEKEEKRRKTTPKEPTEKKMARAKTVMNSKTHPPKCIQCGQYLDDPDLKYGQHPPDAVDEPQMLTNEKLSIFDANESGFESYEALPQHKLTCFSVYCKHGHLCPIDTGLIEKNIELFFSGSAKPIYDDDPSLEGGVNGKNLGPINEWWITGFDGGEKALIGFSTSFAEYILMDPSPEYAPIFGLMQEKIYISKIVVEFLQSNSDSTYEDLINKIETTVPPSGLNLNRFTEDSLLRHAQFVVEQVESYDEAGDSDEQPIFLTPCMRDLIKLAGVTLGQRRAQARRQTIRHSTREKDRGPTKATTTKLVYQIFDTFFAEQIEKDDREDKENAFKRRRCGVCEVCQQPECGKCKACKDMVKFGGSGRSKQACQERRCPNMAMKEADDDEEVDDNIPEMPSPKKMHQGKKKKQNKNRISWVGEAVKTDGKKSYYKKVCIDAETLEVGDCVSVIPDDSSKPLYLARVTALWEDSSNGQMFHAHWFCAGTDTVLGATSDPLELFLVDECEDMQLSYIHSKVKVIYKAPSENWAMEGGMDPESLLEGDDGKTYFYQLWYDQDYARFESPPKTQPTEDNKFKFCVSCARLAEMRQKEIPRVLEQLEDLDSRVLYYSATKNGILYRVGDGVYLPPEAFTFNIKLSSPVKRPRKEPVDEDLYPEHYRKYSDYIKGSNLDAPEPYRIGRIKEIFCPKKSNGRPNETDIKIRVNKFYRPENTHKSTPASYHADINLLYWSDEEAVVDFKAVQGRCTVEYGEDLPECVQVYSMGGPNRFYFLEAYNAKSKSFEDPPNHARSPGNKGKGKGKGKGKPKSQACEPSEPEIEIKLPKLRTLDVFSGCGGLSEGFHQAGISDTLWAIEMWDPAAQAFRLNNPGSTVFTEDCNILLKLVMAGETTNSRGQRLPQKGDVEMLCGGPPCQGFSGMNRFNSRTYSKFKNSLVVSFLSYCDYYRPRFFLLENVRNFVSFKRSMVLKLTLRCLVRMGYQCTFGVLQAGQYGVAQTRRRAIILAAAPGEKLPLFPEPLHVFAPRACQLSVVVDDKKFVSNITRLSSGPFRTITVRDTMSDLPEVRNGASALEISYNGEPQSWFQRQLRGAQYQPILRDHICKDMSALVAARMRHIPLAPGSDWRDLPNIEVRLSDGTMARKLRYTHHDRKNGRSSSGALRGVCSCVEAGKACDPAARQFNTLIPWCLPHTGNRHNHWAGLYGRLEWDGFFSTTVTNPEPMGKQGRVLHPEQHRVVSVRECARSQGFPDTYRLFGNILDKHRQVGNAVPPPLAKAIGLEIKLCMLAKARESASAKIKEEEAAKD
Abl kinase (h), sequence (P00519 whole entry): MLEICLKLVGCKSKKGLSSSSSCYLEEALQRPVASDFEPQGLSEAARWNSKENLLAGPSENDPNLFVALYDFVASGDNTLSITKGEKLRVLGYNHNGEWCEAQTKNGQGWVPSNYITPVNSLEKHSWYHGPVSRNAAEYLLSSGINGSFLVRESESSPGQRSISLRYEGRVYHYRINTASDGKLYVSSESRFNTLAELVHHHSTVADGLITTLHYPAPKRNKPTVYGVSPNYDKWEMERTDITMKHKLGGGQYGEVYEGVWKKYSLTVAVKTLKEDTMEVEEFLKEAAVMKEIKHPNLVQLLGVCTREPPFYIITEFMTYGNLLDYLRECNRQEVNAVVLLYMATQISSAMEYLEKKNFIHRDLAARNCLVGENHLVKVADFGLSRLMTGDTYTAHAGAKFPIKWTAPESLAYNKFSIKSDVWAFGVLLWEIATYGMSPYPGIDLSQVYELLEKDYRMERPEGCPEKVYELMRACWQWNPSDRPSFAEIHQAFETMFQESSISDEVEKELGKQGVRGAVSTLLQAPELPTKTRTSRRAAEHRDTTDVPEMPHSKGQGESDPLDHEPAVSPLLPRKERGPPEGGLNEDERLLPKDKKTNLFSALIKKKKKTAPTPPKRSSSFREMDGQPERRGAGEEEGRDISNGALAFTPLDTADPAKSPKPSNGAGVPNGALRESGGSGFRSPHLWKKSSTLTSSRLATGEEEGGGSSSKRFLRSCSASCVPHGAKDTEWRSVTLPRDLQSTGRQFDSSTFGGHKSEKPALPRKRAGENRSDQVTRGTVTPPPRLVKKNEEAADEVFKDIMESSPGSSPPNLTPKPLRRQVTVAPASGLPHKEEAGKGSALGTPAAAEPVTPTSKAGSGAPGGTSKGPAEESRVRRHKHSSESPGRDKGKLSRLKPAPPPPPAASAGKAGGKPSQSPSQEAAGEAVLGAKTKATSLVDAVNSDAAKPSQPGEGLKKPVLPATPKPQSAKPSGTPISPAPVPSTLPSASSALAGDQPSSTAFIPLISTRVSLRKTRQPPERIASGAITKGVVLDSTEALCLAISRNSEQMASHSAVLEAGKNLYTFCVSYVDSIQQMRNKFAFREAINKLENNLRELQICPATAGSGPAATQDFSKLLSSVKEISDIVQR
FGFR2 kinase (h), sequence (P21802 22-821): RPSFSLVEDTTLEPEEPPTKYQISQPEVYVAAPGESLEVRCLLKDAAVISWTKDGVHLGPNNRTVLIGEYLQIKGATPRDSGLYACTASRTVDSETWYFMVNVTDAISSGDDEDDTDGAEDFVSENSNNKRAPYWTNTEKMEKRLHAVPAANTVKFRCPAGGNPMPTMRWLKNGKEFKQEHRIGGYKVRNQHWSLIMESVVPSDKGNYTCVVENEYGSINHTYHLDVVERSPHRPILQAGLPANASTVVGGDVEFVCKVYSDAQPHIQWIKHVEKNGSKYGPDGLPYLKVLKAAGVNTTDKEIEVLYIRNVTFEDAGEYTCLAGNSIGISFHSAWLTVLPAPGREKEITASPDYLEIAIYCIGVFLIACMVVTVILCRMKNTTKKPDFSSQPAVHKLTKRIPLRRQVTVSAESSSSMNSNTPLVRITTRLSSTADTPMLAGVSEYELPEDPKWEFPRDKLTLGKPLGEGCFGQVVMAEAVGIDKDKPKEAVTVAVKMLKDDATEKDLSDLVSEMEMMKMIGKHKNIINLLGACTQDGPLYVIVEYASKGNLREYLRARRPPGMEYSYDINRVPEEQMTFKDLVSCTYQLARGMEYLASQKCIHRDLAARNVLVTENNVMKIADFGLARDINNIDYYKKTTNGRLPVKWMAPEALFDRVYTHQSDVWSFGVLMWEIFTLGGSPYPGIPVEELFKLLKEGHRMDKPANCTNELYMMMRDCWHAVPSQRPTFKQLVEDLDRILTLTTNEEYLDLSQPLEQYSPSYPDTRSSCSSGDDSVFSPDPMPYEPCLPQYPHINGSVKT
JNK1 (h), sequence (P45983 whole entry): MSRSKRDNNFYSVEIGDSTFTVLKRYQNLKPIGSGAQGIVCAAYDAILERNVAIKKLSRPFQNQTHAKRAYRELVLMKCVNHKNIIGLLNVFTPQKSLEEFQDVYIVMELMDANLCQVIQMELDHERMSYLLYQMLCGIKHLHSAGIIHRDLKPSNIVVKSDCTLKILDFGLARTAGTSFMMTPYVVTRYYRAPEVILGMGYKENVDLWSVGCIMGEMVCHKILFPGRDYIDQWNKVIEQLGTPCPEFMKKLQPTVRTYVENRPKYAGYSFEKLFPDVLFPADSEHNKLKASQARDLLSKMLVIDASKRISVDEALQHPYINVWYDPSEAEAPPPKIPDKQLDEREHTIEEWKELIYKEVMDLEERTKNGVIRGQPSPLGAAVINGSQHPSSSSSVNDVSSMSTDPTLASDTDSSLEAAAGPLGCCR
JAK3 (h), sequence (P52333 whole entry): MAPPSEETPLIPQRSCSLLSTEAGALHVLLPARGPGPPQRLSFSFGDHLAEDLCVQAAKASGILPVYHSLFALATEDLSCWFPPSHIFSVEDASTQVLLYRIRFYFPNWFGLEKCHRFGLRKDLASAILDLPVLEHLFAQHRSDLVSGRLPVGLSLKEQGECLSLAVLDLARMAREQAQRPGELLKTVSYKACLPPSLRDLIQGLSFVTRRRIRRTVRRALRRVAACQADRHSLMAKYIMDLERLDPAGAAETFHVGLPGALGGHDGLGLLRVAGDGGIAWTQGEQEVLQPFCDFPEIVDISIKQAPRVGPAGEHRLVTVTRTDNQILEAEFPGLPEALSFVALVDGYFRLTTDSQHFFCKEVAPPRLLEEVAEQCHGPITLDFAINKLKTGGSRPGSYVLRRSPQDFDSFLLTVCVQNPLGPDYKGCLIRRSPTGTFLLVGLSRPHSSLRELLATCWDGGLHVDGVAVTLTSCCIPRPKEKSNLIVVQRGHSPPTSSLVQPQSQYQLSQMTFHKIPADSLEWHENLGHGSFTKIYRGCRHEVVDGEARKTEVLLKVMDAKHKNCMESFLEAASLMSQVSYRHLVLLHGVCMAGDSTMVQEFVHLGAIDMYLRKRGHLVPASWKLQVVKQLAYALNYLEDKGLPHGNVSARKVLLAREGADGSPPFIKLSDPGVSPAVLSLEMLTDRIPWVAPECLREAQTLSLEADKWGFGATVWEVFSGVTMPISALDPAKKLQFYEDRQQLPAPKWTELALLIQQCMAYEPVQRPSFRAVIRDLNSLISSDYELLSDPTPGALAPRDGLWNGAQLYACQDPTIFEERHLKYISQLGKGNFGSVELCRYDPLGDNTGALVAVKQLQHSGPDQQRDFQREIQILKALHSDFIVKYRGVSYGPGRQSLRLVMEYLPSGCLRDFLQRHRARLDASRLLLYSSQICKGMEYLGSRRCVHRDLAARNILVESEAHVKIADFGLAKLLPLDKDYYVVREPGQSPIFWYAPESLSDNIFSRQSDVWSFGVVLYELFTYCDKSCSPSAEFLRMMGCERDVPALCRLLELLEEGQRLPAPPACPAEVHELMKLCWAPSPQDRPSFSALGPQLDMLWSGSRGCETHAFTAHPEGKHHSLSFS

Work on `O=C(Nc1cccc(Nc2ccnc3ccccc23)c1)c1ccc(Nc2ccnc3ccccc23)cc1` [Compound 2c] yielded an EC50 [1] of 22 ± 3 µM.

With `O=C(Nc1ccc(Nc2ccnc3ccccc23)cc1)c1cccc(Nc2ccnc3ccccc23)c1` [Compound 2a] the inhibition at 10 µM [2] was -178%, the inhibition at 10 µM [3] was 23% and the inhibition at 10 µM [4] was -64%. It also gave an inhibition at 10 µM [5] of -6%, an inhibition at 10 µM [6] of -100% and an inhibition at 10 µM [7] of -91%. For the same compound, the inhibition at 10 µM [8] was -72%, the inhibition at 10 µM [9] was 36% and the inhibition at 10 µM [10] was -54%. It also gave an inhibition at 10 µM [11] of 16%, an inhibition at 10 µM [12] of 26% and an inhibition at 10 µM [13] of 28%. The inhibition at 10 µM [14] was -150%, the inhibition at 10 µM [15] was 0% and the inhibition at 10 µM [16] was 9%. The inhibition at 10 µM [17] was -99%, the inhibition at 10 µM [18] was -20% and the inhibition at 10 µM [19] was 1%. It also gave an inhibition at 10 µM [20] of 16%, an inhibition at 10 µM [21] of -17% and an inhibition at 10 µM [22] of -51%. The inhibition at 10 µM [23] was -195%, the inhibition at 10 µM [24] was -169% and the inhibition at 10 µM [25] was 22%. The inhibition at 10 µM [26] was -57%, the inhibition at 10 µM [27] was -184% and the inhibition at 10 µM [28] was -61%. It also gave an inhibition at 10 µM [29] of -72% and an EC50 [1] of 23 ± 4 µM.
